These results are taken from US4900672A, “Method for preservation of nitrile hydration activity” (Nitto Kagaku Kogyo Kabushiki Kaisha, priority 1986, dated 1990).

Where two headings read alike, the source gives them in different places.

This assay has as its target T1, nitrile hydratase (Pseudomonas chlororaphis, UniProt P27763+P27764).
T1 sequence (P27764 1-200): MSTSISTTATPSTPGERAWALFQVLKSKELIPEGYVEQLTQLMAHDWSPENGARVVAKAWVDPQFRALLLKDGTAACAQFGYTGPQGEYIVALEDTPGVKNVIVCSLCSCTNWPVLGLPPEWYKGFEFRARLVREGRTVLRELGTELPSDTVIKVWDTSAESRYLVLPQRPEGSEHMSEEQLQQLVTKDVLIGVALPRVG
T1 sequence (P27763 1-220): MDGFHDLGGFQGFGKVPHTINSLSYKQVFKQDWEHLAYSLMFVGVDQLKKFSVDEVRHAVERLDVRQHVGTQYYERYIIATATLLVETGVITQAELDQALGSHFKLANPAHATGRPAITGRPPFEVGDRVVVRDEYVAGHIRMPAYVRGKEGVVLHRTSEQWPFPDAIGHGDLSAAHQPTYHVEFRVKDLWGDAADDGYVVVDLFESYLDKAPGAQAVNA
Kind of assay: Preservation of nitrile hydration activity of washed cell suspension left standing ice-cooled with stabilizer. The format is cell-based, Pseudomonas chlororaphis B23 (FERM BP-187).

Setting [1] is: 120 h; Table 1; 10 mg nitrile in 5 ml cell suspension, pH 6.5, left standing 5 days ice-cooled; no stabilizer: 42; read-out: % Residual Activity.
[2] abbreviates: 120 h; Table 3; 10 mg organic acid in 5 ml cell suspension, pH 6.0, left standing 5 days ice-cooled; no stabilizer: 43; read-out: % Residual Activity.
Where [3] appears, read: 120 h, pH 6, read-out: % Residual Activity.
Where [4] appears, read: 120 h; Table 2; 10 mg amide in 5 ml cell suspension, pH 6.5, left standing 5 days ice-cooled; no stabilizer: 42; read-out: % Residual Activity.
[5] abbreviates: 120 h, pH 6.5, read-out: % Residual Activity.
[6] abbreviates: 96 h, pH 5.5, read-out: % Residual Activity.
The mark [7] stands for this setting: 96 h; Table 4; pH 5.0, 25 mg stabilizer in 5 ml, 4 days ice-cooled; no stabilizer: 2; read-out: % Residual Activity.
[8] abbreviates: 96 h; Table 4; pH 6.0, 25 mg stabilizer in 5 ml, 4 days ice-cooled; no stabilizer: 41; read-out: % Residual Activity.
[9] abbreviates: 96 h; Table 4; pH 6.5, 25 mg stabilizer in 5 ml, 4 days ice-cooled; no stabilizer: 52; read-out: % Residual Activity.
The mark [10] stands for this setting: 96 h; Table 4; pH 8.0, 25 mg stabilizer in 5 ml, 4 days ice-cooled; no stabilizer: 26; read-out: % Residual Activity.
[11] abbreviates: Table 5; stabilizer concentration 0.01 g/l, pH 6.0, 3 days ice-cooled; no stabilizer (pH 6.5): 52; read-out: % Residual Activity.
[12] abbreviates: pH 6, read-out: % Residual Activity.
Where [13] appears, read: 96 h, pH 7, read-out: % Residual Activity.

With `CCCCCC#N` [n-Capronitrile], under setting [1], the activity at 10 mg is 89%.
Consider `O=C(O)CC(O)(CC(=O)O)C(=O)O` [Citric acid], for which, under setting [2], the activity at 10 mg turned out to be 77%.
For the molecule `O=C(O)/C=C/C(=O)O` [Fumaric acid], the activity at 10 mg under setting [3] was 82%.
Turning to `C=C(C)C#N` [Methacrylonitrile], the activity at 10 mg under setting [1] amounted to 80%.
Consider `O=C(O)CO` [Glycolic acid], for which the activity at 10 mg under setting [2] turned out to be 77%.
For the molecule `CC(N)=O` [Acetamide], the activity at 10 mg under setting [4] came out at 67%.
Consider `CCCCC#N` [n-Valeronitrile], for which, under setting [1], the activity at 10 mg amounted to 93%.
Take `NC(=O)c1ccccc1` [Benzamide]: the activity at 10 mg under setting [4] came to 65%.
As for `CCC(N)=O` [Propionamide], the activity at 10 mg under setting [4] is 93%.
Consider `CC(O)C(N)=O` (stereo not shown) [Lactamide], for which the activity at 10 mg under setting [4] was determined as 70%.
Regarding `NC(=O)CCl` [Chloroacetamide], the activity at 10 mg under setting [5] was determined as 71%.
As to `N#CCCN` [β-Aminopropionitrile], the activity at 10 mg under setting [1] turned out to be 70%.
Regarding `NC(=O)CCO` [β-Hydroxypropionamide], the activity at 10 mg under setting [4] was determined as 74%.
For `CC#N` [Acetonitrile], under setting [5], the activity at 10 mg is 71%.
For the molecule `CC(O)C#N` (stereo not shown) [Lactonitrile], under setting [1], the activity at 10 mg came out at 73%.
Still for that read-out and setting: the result for `N#Cc1cccnc1` [Nicotinonitrile] reads 73%.
For `C=CC(N)=O` [Acrylamide], under setting [4], the activity at 10 mg stood at 73%.
Turning to `NC(=O)CCC(N)=O` [Succindiamide], the activity at 10 mg under setting [4] came out at 68%.
On to `CCCC#N` [n-Butyronitrile], for which the activity at 10 mg under setting [1] is 88%.
In the case of `O=C(O)C(O)CO` (racemic) [DL-Glyceric acid], under setting [2], the activity at 10 mg was 87%.
For the molecule `CCCC(N)=O` [n-Butyramide], under setting [4], the activity at 10 mg was 89%.
For the molecule `N#CCC#N` [Malononitrile], under “120 h, pH 6.5; read-out: % Residual Activity”, the activity at 10 mg was determined as 69%.
Consider `NC(=O)CCCl` [β-Chloropropionamide], for which the activity at 10 mg under setting [4] is 71%.
Turning to `NC(=O)CC(N)=O` [Malondiamide], the activity at 10 mg under setting [4] was determined as 66%.
Take `O=C(O)CC(=O)C(=O)O` [Oxalacetic acid]: the activity at 10 mg under setting [2] worked out at 83%.
In the case of `C=CC#N` [Acrylonitrile], the activity at 10 mg under setting [1] is 71%.
On the same count and under the same terms, with `N#CCCCl` [β-Chloropropionitrile] the figure was 80%.
For `C=C(C)C(N)=O` [Methacrylamide], the activity at 10 mg under setting [4] turned out to be 79%.
On the same count and under the same terms, with `NCC(N)=O` [Glycine amide] the figure was 63%.
In the case of `O=CC(=O)O` [Glyoxylic acid], the activity at 10 mg under setting [2] was 88%.
Take `N#CCC(N)=O` [Cyanoacetamide]: the activity at 10 mg under setting [1] stood at 75%.
As for `O=CO` [Formic Acid], the activity at 10 mg under setting [3] came to 83%.
As for `N#Cc1ccccc1` [Benzonitrile], the activity at 10 mg under setting [1] was determined as 70%.
On to `NCCC(=O)O` [β-Aminopropionic acid], for which, under setting [3], the activity at 10 mg was 71%.
Take `CCCCCC(=O)O` [Caproic acid]: under setting [2], the activity at 10 mg came out at 83%.
As for `C=CC(=O)O` [Acrylic acid], under setting [2], the activity at 10 mg is 70%.
On to `CCCCC(=O)O` [Valeric acid], for which the activity at 10 mg under setting [3] was found to be 84%.
Take `N#CCN` [Glycine nitrile]: under setting [1], the activity at 10 mg came out at 68%.
For the molecule `N#CCCCCC#N` [Adiponitrile], under setting [1], the activity at 10 mg is 84%.
In the case of `N#CCCl` [Chloroacetonitrile], the activity at 10 mg under setting [1] came to 77%.
With `O=C(O)CC(O)C(=O)O` (stereo not shown) [Malic acid], under setting [2], the activity at 10 mg amounted to 81%.
As to `O=C(O)CC(=O)O` [Malonic acid], the activity at 10 mg under setting [2] came to 63%.
With `CC(C)C#N` [Isobutyronitrile], the activity at 25 mg under setting [6] was 98%; the activity at 25 mg under setting [7] amounted to 5%; the activity at 25 mg under setting [8] came to 97%; the activity at 25 mg under setting [9] is 85%; the activity at 25 mg (96 h; Table 4; pH 7.0, 25 mg stabilizer in 5 ml, 4 days ice-cooled; no stabilizer: 43; read-out: % Residual Activity) stood at 80%; the activity at 25 mg under setting [10] amounted to 53%. Also, the activity at 10 mg under setting [1] was 95%. For the same molecule, under setting [11], the remaining activity at 10 µg/mL stood at 78%. Further, the remaining activity at 100 µg/mL under setting [12] came to 85%. In addition, under setting [12], the remaining activity at 1000 µg/mL worked out at 98%. Also, the remaining activity at 5000 µg/mL under setting [12] was found to be 100%. Besides, the remaining activity at 20000 µg/mL under setting [12] was 91%.
In the case of `O=C(O)CCC(=O)O` [Succinic acid], under setting [3], the activity at 10 mg was 80%.
For `CC(C)C(N)=O` [Isobutyramide], the activity at 25 mg is, setting by setting: under setting [13], 78%; under setting [7], 3%; (96 h; Table 4; pH 5.5, 25 mg stabilizer in 5 ml, 4 days ice-cooled; no stabilizer: 32; read-out: % Residual Activity) 100%; under setting [8], 100%; under setting [9], 87%; under setting [10], 52%. For the same molecule, the activity at 10 mg under setting [5] was 99%. For the same molecule, the remaining activity at 10 µg/mL under setting [11] turned out to be 82%. Besides, for the setting “Table 5; stabilizer concentration 0.1 g/l, pH 6.0, 3 days ice-cooled; read-out: % Residual Activity”, the remaining activity at 100 µg/mL stood at 88%. For the same molecule, the remaining activity at 1000 µg/mL (Table 5; stabilizer concentration 1.0 g/l, pH 6.0, 3 days ice-cooled; read-out: % Residual Activity) was 100%. The remaining activity at 5000 µg/mL (Table 5; stabilizer concentration 5.0 g/l, pH 6.0, 3 days ice-cooled; read-out: % Residual Activity) came to 100%. Besides, the remaining activity at 20000 µg/mL (Table 5; stabilizer concentration 20 g/l, pH 6.0, 3 days ice-cooled; read-out: % Residual Activity) worked out at 100%. Besides, the remaining activity at 50000 µg/mL (Table 5; stabilizer concentration 50 g/l, pH 6.0, 3 days ice-cooled; read-out: % Residual Activity) was determined as 90%.
Consider `O=C(O)CCl` [Monochloroacetic acid], for which, under setting [2], the activity at 10 mg worked out at 70%.
As for `CC(C)C(=O)O` [Isobutyric acid], the activity at 25 mg (96 h, pH 5, read-out: % Residual Activity) turned out to be 1%; the activity at 25 mg under setting [6] was determined as 100%; the activity at 25 mg (96 h, pH 6, read-out: % Residual Activity) amounted to 100%; the activity at 25 mg (96 h, pH 6.5, read-out: % Residual Activity) turned out to be 88%; the activity at 25 mg under setting [13] stood at 78%; the activity at 25 mg (96 h, pH 8, read-out: % Residual Activity) was 49%. Under setting [3], the activity at 10 mg was found to be 97%. The remaining activity at 100 µg/mL under setting [12] was 83%. For the same molecule, under setting [12], the remaining activity at 1000 µg/mL came out at 100%. Besides, the remaining activity at 5000 µg/mL under setting [12] came out at 97%. Moreover, under setting [12], the remaining activity at 20000 µg/mL turned out to be 95%. Further, the remaining activity at 50000 µg/mL under setting [12] came to 87%. Also, under “read-out: % Residual Activity”, the remaining activity at 10 µg/mL was 80%.
Regarding `CCCCC(N)=O` [n-Valeramide], the activity at 10 mg under setting [4] came out at 94%.
As for `CCCCCC(N)=O` [n-Capronamide], under setting [4], the activity at 10 mg was found to be 88%.
On the same count and under the same terms, with `NCCC(N)=O` [β-Aminopropionamide] the figure was 68%.
In the case of `N#CCCC#N` [Succiononitrile], under setting [1], the activity at 10 mg was 81%.
Turning to `N#CCC(=O)O` [Cyanoacetic acid], the activity at 10 mg under setting [1] was found to be 69%.
In the case of `NC(=O)c1cccnc1` [Nicotinamide], the activity at 10 mg under setting [4] was found to be 59%.
Turning to `N#CCCO` [β-Hydroxypropionitrile], under setting [1], the activity at 10 mg is 84%.
As for `CCC(=O)O` [Propionic acid], the activity at 10 mg under setting [3] came out at 93%.
As to `C=C(C)C(=O)O` [Methacrylic acid], the activity at 10 mg under setting [2] stood at 81%.
For `CC(=O)O` [Acetic acid], under setting [3], the activity at 10 mg was found to be 77%.
For the molecule `O=C(O)c1ccccc1` [Benzoic acid], the activity at 10 mg under setting [2] was 68%.
In the case of `CCC#N` [Propionitrile], under setting [1], the activity at 10 mg stood at 90%.
